Assay results published in US8507464B2, “Phosphoramidate alkylator prodrugs” (Threshold Pharmaceuticals, Inc., priority 2005, dated 2013).
Where two headings read alike, the source gives them in different places.

Tests used:
in vivo = settings: CD-1, mouse, 20 mg/kg
NCI-H460 cells [1] = assay: Antiproliferation assay - oxygen dependence; type: cell-based, human
Source text: . […] The calculated IC50 values (μM) are tabulated in Table Y1 (H460 cells) or Table Y2 (HT29 cells) below.

NCI-H460 cells [2] = assay: Antiproliferation assay (Alamar Blue), anoxia vs air
NCI-H460 cells [3] = assay: Clonogenic assay - oxygen dependence; settings: Homo sapiens
H460 cell line = assay: Anti-proliferation assay, hypoxia vs normoxia (Table 1A); settings: for IC50: Homo sapiens; for HCR P: ratio of IC50 in normoxia and hypoxia
[4] = type: physicochemical; settings: glassy carbon, Ag/AgCl reference; for Reduction Potentials, 100 mV/sec: scan rate 100 mV/sec; for Reduction Potentials, 10,000 mV/sec: scan rate 10,000 mV/sec
[5] = Plasma stability (Table 2B); settings: 30 min
[6] = tested on: mouse (MLM) liver microsomal proteins; type: in vitro ADME; settings: Table 2B
human H460 cells = assay: Clonogenic survival assay, hypoxia vs normoxia (Table 1A); settings: for IC90: Homo sapiens
[7] = Homo sapiens, NCI-H460, read-out: IC50 in H460 cells, 0.6% O2
[8] = Homo sapiens, NCI-H460; read-out: IC50 in H460 cells, Air
[9] = Homo sapiens, NCI-H460; read-out: IC50 in H460 cells, N2
[10] = Homo sapiens, NCI-H460, 2 h, read-out: IC50 H460 Air, air, 2 h exposure
[11] = Homo sapiens, NCI-H460, 2 h, read-out: IC50 H460 Anoxia, anoxia, 2 h exposure
[12] = NCI-H460, read-out: Hypoxia P (proliferation IC50)
[13] = NCI-H460, read-out: Normoxia P (proliferation IC50)
[14] = Homo sapiens, NCI-H460, read-out: IC50 in H460 cells, Air
[15] = Homo sapiens, NCI-H460, read-out: IC50 in H460 cells, N2
[16] = Homo sapiens, NCI-H460, read-out: IC50 in H460 cells, 0.1% O2
[17] = Homo sapiens, NCI-H460, read-out: IC50 in H460 cells, 10% O2

Row | SMILES | IC50 (NCI-H460 cells [2]; [10]) [µM] | IC50 (NCI-H460 cells [2]; [11]) [µM] | IC50 (H460 cell line; [12]) [µM] | IC50 (H460 cell line; [13]) [µM] | HCR P (H460 cell line) | other results
1 | C[C@H](CCl)NP(=O)(N[C@H](C)CCl)OCc1cnc([N+](=O)[O-])n1C [Compound 37] | > 100 | 0.36 | – | – | – | AUC (in vivo; ip): 196 µg·h/mL; Cmax (in vivo; ip): 12600 ng/mL; Tmax (in vivo; ip): 2 min; half-life (in vivo; ip): 23.2 min; AUC (in vivo; iv): 172 µg·h/mL; Cmax (in vivo; iv): 15000 ng/mL; Tmax (in vivo; iv): 2 min; half-life (in vivo; iv): 9 min; IC50 (NCI-H460 cells [1]; [7]): 25 µM; IC50 (NCI-H460 cells [1]; [8]): > 100 µM; IC50 (NCI-H460 cells [1]; [9]): 0.5 µM; IC90 (NCI-H460 cells [3]; NCI-H460, read-out: IC90 H460 0.6% O2): 5 µM; IC90 (NCI-H460 cells [3]; NCI-H460, read-out: IC90 H460 Air): 90 µM; IC90 (NCI-H460 cells [3]; NCI-H460, read-out: IC90 H460 N2): 0.2 µM
2 | O=[N+]([O-])c1ccc(COP(=O)(N(CCCl)CCCl)N2CCOCC2)o1 (stereo not drawn) [Compound 12] | > 100 | 1.7 | 1.7 | > 100 | >50 | –
3 | O=[N+]([O-])c1ccc(COP(=O)(N(CCCl)CCCl)N2CCCC2)o1 (stereo not drawn) [Compound 11] | > 100 | 5.2 | 5.2 | > 100 | >20 | –
4 | O=[N+]([O-])c1ccc(COCOP(=O)(NCCCl)NCCCl)o1 [Compound 31] | > 100 | 83 | 83 | > 100 | >1 | –
5 | O=[N+]([O-])c1ccc(COP(=O)(N(CCCl)CCCl)N(CCCl)CCCl)o1 [Compound P22, reference compound] | – | – | 4.5 | 3.5 | ca. 1 | –
6 | CN(CCCl)P(=O)(OCc1ccc([N+](=O)[O-])o1)N(C)CCCl [Compound 8] | 0.6 | 0.013 | 0.01 | 0.6 | 60 | –
7 | Cn1c(COc2ccc(COP(N)(=O)N(CCCl)CCCl)cc2F)cnc1[N+](=O)[O-] (stereo not drawn) [Compound 22] | 16 | 0.7 | 0.7 | 16 | 23 | –
8 | COc1cc(COP(=O)(N(C)CCCl)N(C)CCCl)ccc1OCc1cnc([N+](=O)[O-])n1C [Compound 18] | 9 | 3.4 | 3.4 | 9 | 3 | –
9 | O=[N+]([O-])c1ccc(COP(=O)(NCCNP(=O)(OCc2ccc([N+](=O)[O-])o2)N(CCCl)CCCl)N(CCCl)CCCl)o1 (stereo not drawn) [Compound 21] | – | – | 0.25 | 7.8 | 26 | –
10 | Cn1c([N+](=O)[O-])cnc1COc1ccc(COP(N)(=O)N(CCCl)CCCl)cc1F (stereo not drawn) [Compound 3] | > 100 | > 20 | > 20 | > 100 | >5 | –
11 | Cn1c([N+](=O)[O-])cnc1COc1ccc(COP(N)(=O)N(CCCl)CCCl)cc1 (stereo not drawn) [Compound S1] | – | – | > 40 | > 100 | >3 | –
12 | O=[N+]([O-])c1ncc[nH]1 [2-NO2-Imidazole, reference compound] | – | – | – | – | – | Reduction Potentials, 100 mV/sec [4]: −634 mV; Reduction Potentials, 10,000 mV/sec [4]: −693 mV
13 | Cc1csc(C(C)OP(=O)(NCCBr)NCCBr)c1[N+](=O)[O-] (stereo not drawn) [Compound 103] | – | – | – | – | – | Reduction Potentials, 10,000 mV/sec [4]: −756 mV; IC50 (NCI-H460 cells [2]; read-out: IC50 H460 Air, air, 2 h exposure): 2 µM; IC50 (NCI-H460 cells [2]; read-out: IC50 H460 Anoxia, anoxia, 2 h exposure): 0.02 µM
14 | Cn1c(COP2(=O)N(CCBr)CCN2CCBr)cnc1[N+](=O)[O-] [Compound 108] | > 100 | 1.1 | – | – | – | Reduction Potentials, 100 mV/sec [4]: −614 mV; Reduction Potentials, 10,000 mV/sec [4]: −593 mV; IC50 (NCI-H460 cells [1]; [7]): > 100 µM; IC50 (NCI-H460 cells [1]; [14]): > 100 µM; IC50 (NCI-H460 cells [1]; [15]): 1 µM
15 | CCN(CCCl)P(=O)(OCc1cnc([N+](=O)[O-])n1C)N(CC)CCCl [Compound 15] | 1 | 0.08 | 0.08 | 1 | 12 | –
16 | CN(CCCl)P(=O)(OCc1c(F)c(F)c(OCc2ncc([N+](=O)[O-])n2C)c(F)c1F)N(C)CCCl [Compound 17] | 9 | 1 | 1 | 9 | 9 | –
17 | Cn1c(COP2(=O)N(CCCl)CCN2CCCl)cnc1[N+](=O)[O-] [Compound S2] | – | – | 7 | > 100 | >14 | –
18 | O=[N+]([O-])c1ccc(COP(=O)(NCCCl)NCCCl)s1 [Compound 26] | 35 | 0.1 | 0.1 | 35 | 350 | IC50 (NCI-H460 cells [1]; [16]): 3 µM; IC50 (NCI-H460 cells [1]; [7]): 6 µM; IC50 (NCI-H460 cells [1]; Homo sapiens, NCI-H460, read-out: IC50 in H460 cells, 1% O2): 5 µM; IC50 (NCI-H460 cells [1]; [17]): 10 µM; IC50 (NCI-H460 cells [1]; [14]): 40 µM; IC50 (NCI-H460 cells [1]; [15]): 0.3 µM; Plasma stability (% at 30 min) [5]: 85%; Metabolic stability (MLM) (% at 30 min) [6]: 56%
19 | CN(C)P(=O)(OCc1cnc([N+](=O)[O-])n1C)N(CCCl)CCCl (stereo not drawn) [Compound 4] | > 100 | 40 | 40 | > 100 | >2 | –
20 | CC(OP(=O)(NCCBr)NCCBr)c1ccc([N+](=O)[O-])s1 (stereo not drawn) [Compound 88] | 0.53 | 0.03 | – | – | – | Reduction Potentials, 100 mV/sec [4]: −559 mV; Reduction Potentials, 10,000 mV/sec [4]: −629 mV; IC50 (NCI-H460 cells [1]; Homo sapiens, NCI-H460, read-out: IC50 in H460 cells, 0.3% O2): 0.5 µM; IC50 (NCI-H460 cells [1]; [7]): 0.2 µM; IC50 (NCI-H460 cells [1]; [14]): 0.5 µM; IC50 (NCI-H460 cells [1]; [15]): 0.03 µM
21 | CC(C)N(CCCl)P(=O)(OCc1cnc([N+](=O)[O-])n1C)N(CCCl)C(C)C [Compound 14] | > 100 | 8.5 | 8.5 | > 100 | >12 | –
22 | Cn1c(COP2(=O)N(CCCl)CCCN2CCCl)cnc1[N+](=O)[O-] [Compound 16] | > 100 | 1.6 | 1.6 | 100 | 60 | IC50 (NCI-H460 cells [1]; [16]): 10 µM; IC50 (NCI-H460 cells [1]; [7]): 10 µM; IC50 (NCI-H460 cells [1]; [17]): 100 µM; IC50 (NCI-H460 cells [1]; [8]): > 100 µM; IC50 (NCI-H460 cells [1]; [9]): 0.3 µM; IC90 (human H460 cells; NCI-H460, read-out: Hypoxia C (clonogenic IC90)): 0.2 µM; IC90 (human H460 cells; NCI-H460, read-out: Normoxia C (clonogenic IC90)): 35 µM; HCR C (human H460 cells; ratio of IC90 in normoxia and hypoxia): 175; Metabolic stability (MLM) (% at 30 min) [6]: 40%
23 | Cn1c(COP(=O)(NCCCl)NCCCl)nc(Br)c1[N+](=O)[O-] [Compound 32] | 100 | 50 | 50 | 100 | 2 | –
24 | CC(OP(N)(=O)N(CCCl)CCCl)c1ncc([N+](=O)[O-])n1C (stereo not drawn) [Compound 2] | > 100 | 8 | 8 | > 100 | >12 | –
25 | Cn1c(COc2ccc(COP(=O)(NCCCl)NCCCl)cc2F)cnc1[N+](=O)[O-] [Compound 27] | 100 | – | 2.5 | 100 | 40 | –
26 | O=[N+]([O-])c1ccc(COP(=O)(NCCCCNP(=O)(OCc2ccc([N+](=O)[O-])o2)N(CCCl)CCCl)N(CCCl)CCCl)o1 (stereo not drawn) [Compound 20] | – | – | 1 | 8.5 | 8 | –
27 | CC(OP(=O)(NCCBr)NCCBr)c1ccc([N+](=O)[O-])cc1 (stereo not drawn) [Compound 78] | > 100 | > 100 | – | – | – | Reduction Potentials, 100 mV/sec [4]: −704 mV; Reduction Potentials, 10,000 mV/sec [4]: −746 mV
28 | CN(CCCl)P(=O)(OCc1ncc([N+](=O)[O-])n1C)N(C)CCCl [Compound 9] | > 100 | > 10 | > 10 | > 100 | >10 | –
